Assay results from ChEMBL document CHEMBL2311481, “Synthesis, characterization and antimalarial activity of quinoline-pyrimidine hybrids” (Bioorg Med Chem, 2013).
Values after ≈ are worked out from the molar mass of the structure shown.

How the values were obtained:
CHO = assay: Cytotoxicity against CHO cells after 48 hrs by MTT assay; assay type: cell-based; conditions: Cricetulus griseus
[1] = Partition coefficient, log D of the compound using n-octanol/PBS buffer system at pH 7.4 by HPLC method; assay type: physicochemical
[2] = Partition coefficient, log D of the compound using n-octanol/PBS buffer system at pH 5.5 by HPLC method; assay type: physicochemical
Plasmodium falciparum [3] = assay: microbe, parasite or virus in culture; conditions: D10, 48 h
[4] = Aqueous solubility in pH 7.4 PBS buffer at 37 degC incubated for 24 hrs by HPLC method; assay type: physicochemical; conditions: pH 7.4, 24 h
Plasmodium falciparum [5] = assay: Resistance index, ratio of IC50 for chloroquine-resistant Plasmodium falciparum Dd2 to IC50 for chloroquine-susceptible Plasmodium falciparum D10; assay type: functional
Plasmodium falciparum [6] = assay: Antimalarial activity against chloroquine-resistant Plasmodium falciparum Dd2 asexual erythrocyte forms after 48 hrs by parasite LDH assay; assay type: functional, organism-based; conditions: Dd2, 48 h
[7] = Aqueous solubility in pH 5.5 PBS buffer at 37 degC incubated for 24 hrs by HPLC method; assay type: physicochemical; conditions: pH 5.5, 24 h
[8] = Selectivity index, ratio of IC50 for CHO cells to IC50 for chloroquine-susceptible Plasmodium falciparum D10; assay type: toxicity, cell-based; conditions: hamster, read-out: Ratio IC50
[9] = Solubility in octanol at pH 7.4; assay type: physicochemical
[10] = Solubility in octanol at pH 5.5; assay type: physicochemical; conditions: buffer
[11] = Dissociation constant, pKa of the compound at pH 7.4
[12] = n-octanol/PBS buffer, read-out: logD

SMILES	IC50 (CHO) [nM]	logD ([1]; octanol/water)	logD ([2]; octanol/water)	IC50 (Plasmodium falciparum [3]) [nM]	solubility [4]	Ratio IC50 (Plasmodium falciparum [5])	IC50 (Plasmodium falciparum [6]) [nM]	solubility [7] [µM]	selectivity ratio [8]	solubility [9] [µM]	logD [1, 12]	solubility [10] [µM]	logD [2, 12]	pKa [11]
Nc1cc(Nc2ccc(Nc3ccnc4cc(Cl)ccc34)cc2)nc(N)n1	13800	ND(Insoluble)	ND(Insoluble)	220	ND(Insoluble)	0.5	107	0.01 (≈ 0.00378 µg/mL)	63	–	–	–	–	–
CCC(COc1cc(N)nc(N)n1)Nc1ccnc2cc(Cl)ccc12 (stereo unspecified)	156000	–	–	157	0.02 µM (≈ 0.00718 µg/mL)	1.4	210	0.04 (≈ 0.0144 µg/mL)	995	5.68 (≈ 2.04 µg/mL)	2.47	0.49 (≈ 0.176 µg/mL)	1.07	–
Nc1cc(NCCNc2ccnc3cc(Cl)ccc23)nc(N)n1	190000	–	–	317	0.12 µM (≈ 0.0396 µg/mL)	3.2	1020	0.52 (≈ 0.171 µg/mL)	607	0.72 (≈ 0.237 µg/mL)	0.78	0.45 (≈ 0.148 µg/mL)	-0.07	–
Nc1cc(N2CCN(c3ccnc4cc(Cl)ccc34)CC2)nc(N)n1	146000	ND(Insoluble)	–	70	0.01 µM (≈ 0.00356 µg/mL)	2.4	157	0.66 (≈ 0.235 µg/mL)	2070	–	–	0.07 (≈ 0.0249 µg/mL)	-0.99	–
Nc1cc(OCCCNc2ccnc3cc(Cl)ccc23)nc(N)n1	107000	–	–	217	0.12 µM (≈ 0.0414 µg/mL)	2.2	467	0.31 (≈ 0.107 µg/mL)	494	1.2 (≈ 0.414 µg/mL)	1.01	0.25 (≈ 0.0862 µg/mL)	-0.08	–
Nc1cc(OCCNc2ccnc3cc(Cl)ccc23)nc(N)n1	174000	–	–	230	0.23 µM (≈ 0.0761 µg/mL)	2.6	580	0.3 (≈ 0.0992 µg/mL)	764	1.84 (≈ 0.609 µg/mL)	0.9	0.15 (≈ 0.0496 µg/mL)	-0.3	–
CC[C@H]1CN2CCc3cc(OC)c(OC)cc3[C@@H]2C[C@@H]1C[C@H]1NCCc2cc(OC)c(OC)cc21 [EMETINE]	125000	–	–	–	–	–	–	–	–	–	–	–	–	–
Nc1cc(OCCOCCNc2ccnc3cc(Cl)ccc23)nc(N)n1	250000	–	–	837	0.84 µM (≈ 0.315 µg/mL)	5	4100	1.17 (≈ 0.439 µg/mL)	303	0.44 (≈ 0.165 µg/mL)	-0.28	0.6 (≈ 0.225 µg/mL)	-0.29	–
Nc1cc(NCCCCNc2ccnc3cc(Cl)ccc23)nc(N)n1	162000	–	–	580	0.94 µM (≈ 0.336 µg/mL)	2.2	1260	1.04 (≈ 0.372 µg/mL)	280	2.91 (≈ 1.04 µg/mL)	0.49	0.19 (≈ 0.068 µg/mL)	-0.74	–
Nc1cc(NCCCNc2ccnc3cc(Cl)ccc23)nc(N)n1	255000	–	–	850	0.62 µM (≈ 0.213 µg/mL)	1.4	1210	0.88 (≈ 0.303 µg/mL)	308	0.79 (≈ 0.272 µg/mL)	0.11	0.16 (≈ 0.055 µg/mL)	-0.74	–
CC(COc1cc(N)nc(N)n1)Nc1ccnc2cc(Cl)ccc12 (stereo unspecified)	250000	–	–	243	0.25 µM (≈ 0.0862 µg/mL)	2.3	543	1.45 (≈ 0.5 µg/mL)	1030	2.14 (≈ 0.738 µg/mL)	0.92	0.07 (≈ 0.0241 µg/mL)	-1.34	–
CCc1nc(N)nc(N)c1-c1ccc(Cl)cc1 [PYRIMETHAMINE]	–	–	–	70	0.15 µM (≈ 0.0373 µg/mL)	–	–	1.16 (≈ 0.289 µg/mL)	–	12.8 (≈ 3.19 µg/mL)	1.93	6.67 (≈ 1.66 µg/mL)	0.76	7.36
